This is an account of results in patent publication US20250179194A1, “COMPOSITIONS AND METHODS FOR IMMUNOTHERAPY TARGETING FLT3, PD-1, AND/OR PD-L1” (Cytoimmune Therapeutics, Inc., priority 2018, published 2025).

The test system of test [1] is surface FLT3 expression in MOLM-13, U937, THP-1, MV4-11, and EOL-1 AML cell lines. Put plainly: Surface FLT3 expression in AML cell lines after FLT3 inhibitor treatment. The format is cell-based, human. Particulars: 10 μM, 48 hours.
For test [2], the system named is FLT3 surface density expression on AML blasts. Put plainly: Surface FLT3 expression by flow cytometry on AML patient blasts. Type of test: cell-based, human. Particulars: 48 hours, peripheral blood samples. As for the experimental part: FIG. 11 depicts the quantification of FLT3 surface density expression by flow cytometry on AML blasts before and after being treated with Midostaurin for 48 hours.
Further experiments were conducted to determine whether FLT3 expression was increased upon administration of an FLT3 inhibitor. […] FIG. 11 depicts the detection of surface FLT3 expression by flow cytometry in peripheral blood samples of patients who were treated with Midostaurin for 48 hours.

In the case of `CCCNc1nc(Nc2ccc(C#N)cc2)ncc1C#CCCCNC(=O)[C@H](C)N(C)C(=O)/C=C/CN(C)C` [FF-10101], the “FLT3 surface expression in AML cell lines” value in test [1] was “upregulated”.

Regarding `CO[C@@H]1[C@H](N(C)C(=O)c2ccccc2)C[C@H]2O[C@]1(C)n1c3ccccc3c3c4c(c5c6ccccc6n2c5c31)C(=O)NC4` [Midostaurin], the “FLT3 surface expression in AML cell lines” value in test [1] is reported as “upregulated”. The “FLT3 surface expression on AML patient blasts” value in test [2] was “upregulated”.

Regarding Dovitinib [Dovitinib (TKI-258)], the “FLT3 surface expression in AML cell lines” value in test [1] was “upregulated”.
